The target of assay [1] is human norepinephrine transporter (NET) (Homo sapiens (Human), UniProt P23975). The experiment in a line: Binding assay to human norepinephrine transporter (NET) ([3H]-Nisoxetin). The settings on record: Table 2, dual compounds; [3H]-Nisoxetin binding. In short, it runs like this:
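NET-enriched membranes (5 μg) incubated with 5 nM [3H]-nisoxetin in 50 mM Tris-HCl, 120 mM NaCl, 5 mM KCl, pH 7.4, 60 min at 4 °C. Bound ligand separated by filtration on PEI-soaked GF/C and counted by scintillation; nonspecific binding defined with 1 μM competitor.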

In assay [2] the target is human α2δ-1 subunit of Cav2.2 calcium channel (Homo sapiens (Human), UniProt P54289). The experiment in a line: Binding assay to human α2δ-1 subunit of Cav2.2 calcium channel ([3H]-Gabapentin). The settings on record: read-out: Ki (nM) α2δ-1. In short, it runs like this: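 Radioactivity on dried GF/C filters quantified by scintillation after filtration and three cold Tris-HCl (pH 7.4) washes. Incubation ran 60 min at 27° C with [3H]-gabapentin; 10 μM pregabalin gave nonspecific binding.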
Chain of human α2δ-1 subunit of Cav2.2 calcium channel (P54289 25-1103): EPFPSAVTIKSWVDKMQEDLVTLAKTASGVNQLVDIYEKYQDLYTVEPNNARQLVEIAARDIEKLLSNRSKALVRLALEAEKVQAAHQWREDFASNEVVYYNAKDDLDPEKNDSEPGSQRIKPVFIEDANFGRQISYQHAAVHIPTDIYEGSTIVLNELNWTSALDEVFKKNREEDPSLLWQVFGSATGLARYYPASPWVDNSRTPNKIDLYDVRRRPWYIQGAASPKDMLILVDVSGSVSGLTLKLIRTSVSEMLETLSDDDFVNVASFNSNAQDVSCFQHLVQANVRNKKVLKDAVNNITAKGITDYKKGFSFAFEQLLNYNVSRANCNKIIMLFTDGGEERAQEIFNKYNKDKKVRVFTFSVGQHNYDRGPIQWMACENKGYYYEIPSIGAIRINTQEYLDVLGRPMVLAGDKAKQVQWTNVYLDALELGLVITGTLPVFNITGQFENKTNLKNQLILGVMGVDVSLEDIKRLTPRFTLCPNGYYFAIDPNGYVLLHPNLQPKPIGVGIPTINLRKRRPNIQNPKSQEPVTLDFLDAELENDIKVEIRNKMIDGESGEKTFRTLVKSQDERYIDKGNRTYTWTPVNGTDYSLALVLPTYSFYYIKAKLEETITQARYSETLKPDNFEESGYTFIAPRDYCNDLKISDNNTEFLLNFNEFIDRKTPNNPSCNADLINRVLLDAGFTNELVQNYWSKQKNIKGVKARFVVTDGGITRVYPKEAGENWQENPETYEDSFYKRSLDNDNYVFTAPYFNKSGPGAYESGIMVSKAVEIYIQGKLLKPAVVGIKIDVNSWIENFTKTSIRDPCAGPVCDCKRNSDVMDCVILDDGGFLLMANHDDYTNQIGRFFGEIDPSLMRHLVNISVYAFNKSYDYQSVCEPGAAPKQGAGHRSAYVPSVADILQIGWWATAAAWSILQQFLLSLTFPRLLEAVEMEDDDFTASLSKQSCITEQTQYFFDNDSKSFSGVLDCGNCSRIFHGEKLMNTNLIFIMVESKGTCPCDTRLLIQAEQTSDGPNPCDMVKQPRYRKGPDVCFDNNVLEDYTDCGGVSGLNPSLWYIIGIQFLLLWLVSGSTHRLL

[3] abbreviates: Table 2, dual compounds, [3H]-Gabapentin binding.
[4] abbreviates: binding to α2δ-1, [3H]-Gabapentin.

What is called Ki is the equilibrium dissociation constant of an inhibitor or competing ligand from its target.

SMILES strings stand for the structures. Read-outs that look alike come from different tables or passages of the source.

Chain of human norepinephrine transporter (NET) (P23975 whole entry): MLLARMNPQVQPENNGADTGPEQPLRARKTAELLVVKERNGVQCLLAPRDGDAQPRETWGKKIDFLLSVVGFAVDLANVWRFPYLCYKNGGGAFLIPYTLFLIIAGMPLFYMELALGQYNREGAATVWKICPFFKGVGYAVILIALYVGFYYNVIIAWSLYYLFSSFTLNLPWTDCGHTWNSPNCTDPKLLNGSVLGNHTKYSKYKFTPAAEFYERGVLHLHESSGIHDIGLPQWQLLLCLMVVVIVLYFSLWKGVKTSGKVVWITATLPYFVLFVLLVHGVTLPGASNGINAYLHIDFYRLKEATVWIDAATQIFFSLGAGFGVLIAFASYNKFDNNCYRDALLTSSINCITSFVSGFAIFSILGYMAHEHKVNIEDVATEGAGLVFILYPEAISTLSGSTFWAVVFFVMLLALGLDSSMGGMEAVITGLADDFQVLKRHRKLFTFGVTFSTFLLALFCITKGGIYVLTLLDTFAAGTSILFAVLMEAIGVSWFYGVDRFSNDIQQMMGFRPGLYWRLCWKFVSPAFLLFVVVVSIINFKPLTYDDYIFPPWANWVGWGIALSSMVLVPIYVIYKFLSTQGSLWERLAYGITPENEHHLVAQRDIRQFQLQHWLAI

With `CNCC[C@H](Oc1ccc(CN2CCN(C)c3nc(N(C)C)ncc3C2=O)cc1)c1cccs1` [Example 419, (S)-2-(dimethylamino)-9-methyl-6-(4-(3-(methylamino)-1-(thiophen-2-yl)propoxy)benzyl)-6,7,8,9-tetrahydro-5H-pyrimido[4,5-e][1,4]diazepin-5-one], the inhibitory constant (Ki) in assay [1], in assay [2] (setting [3]) and in assay [2] (setting [4]) was 100 to 500 nM each time.
On to `CNCCC(OCc1ccc(CN2CCN(C)c3nc(C)ncc3C2=O)cc1)c1ccccc1` (stereo not drawn) [Example 422, 2,9-dimethyl-6-(4-((3-(methylamino)-1-phenylpropoxy)methyl)benzyl)-6,7,8,9-tetrahydro-5H-pyrimido[4,5-e][1,4]diazepin-5-one], for which the inhibition constant Ki is 500 to 1000 nM in assay [1], over 3000 nM in assay [2] (setting [3]) and over 3000 nM in assay [2] (setting [4]).
As to `CNCCC(OCc1cccc(CN2CCN(C)c3nc(C)ncc3C2=O)c1)c1ccccc1` (stereo not drawn) [Example 423, 2,9-dimethyl-6-(3-((3-(methylamino)-1-phenylpropoxy)methyl)benzyl)-6,7,8,9-tetrahydro-5H-pyrimido[4,5-e][1,4]diazepin-5-one], the values for the Ki in assay [1], in assay [2] (setting [3]) and in assay [2] (setting [4]) were 100 to 500 nM, over 3000 nM and over 3000 nM, respectively.
Turning to `CNCCC(Oc1ccc(CN2CCN(C)c3nc(C)ncc3C2=O)cc1)c1ccccc1` (stereo not drawn) [Example 425, 2,9-dimethyl-6-(4-(3-(methylamino)-1-phenylpropoxy)benzyl)-6,7,8,9-tetrahydro-5H-pyrimido[4,5-e][1,4]diazepin-5-one], the results for the inhibitory constant (Ki) in assay [1], in assay [2] (setting [3]) and in assay [2] (setting [4]) were under 100 nM, over 3000 nM and over 3000 nM, respectively.
Consider `CCc1ncc2c(n1)N(C)CCN(Cc1ccc(OC(CCNC)c3ccccc3)cc1)C2=O` (stereo not drawn) [Example 426, 2-ethyl-9-methyl-6-(4-(3-(methylamino)-1-phenylpropoxy)benzyl)-6,7,8,9-tetrahydro-5H-pyrimido[4,5-e][1,4]diazepin-5-one], for which the inhibition constant (Ki) is under 100 nM in assay [1], 500 to 3000 nM in assay [2] (setting [3]) and 500 to 3000 nM in assay [2] (setting [4]).
For `CNCCC(Oc1ccc(CN2CCN(C)c3ncncc3C2=O)cc1)c1ccccc1` (stereo not drawn) [Example 430, 9-methyl-6-(4-(3-(methylamino)-1-phenylpropoxy)benzyl)-6,7,8,9-tetrahydro-5H-pyrimido[4,5-e][1,4]diazepin-5-one], the results for the Ki in assay [1], in assay [2] (setting [3]) and in assay [2] (setting [4]) were under 100 nM, 500 to 3000 nM and 500 to 3000 nM, respectively.
With `CNCC[C@H](Oc1ccc(CN2CCN(C)c3ncncc3C2=O)cc1)c1ccccc1` [Example 433, (S)-9-methyl-6-(4-(3-(methylamino)-1-phenylpropoxy)benzyl)-6,7,8,9-tetrahydro-5H-pyrimido[4,5-e][1,4]diazepin-5-one], the Ki is under 100 nM in assay [1], 500 to 3000 nM in assay [2] (setting [3]) and 500 to 3000 nM in assay [2] (setting [4]).
As for `CNCC[C@@H](Oc1ccc(CN2CCN(C)c3ncncc3C2=O)cc1)c1ccccc1` [Example 434, (R)-9-methyl-6-(4-(3-(methylamino)-1-phenylpropoxy)benzyl)-6,7,8,9-tetrahydro-5H-pyrimido[4,5-e][1,4]diazepin-5-one], the values for the Ki in assay [1], in assay [2] (setting [3]) and in assay [2] (setting [4]) were 100 to 500 nM, over 3000 nM and over 3000 nM, respectively.
Turning to `CCNc1ncc2c(n1)N(C)CCN(c1cccc(-c3nnc(CN4CCC(c5cccc(O)c5)(N(C)C)CC4)o3)c1)C2=O` [Example 442, 6-(3-(5-((4-(dimethylamino)-4-(3-hydroxyphenyl)piperidin-1-yl)methyl)-1,3,4-oxadiazol-2-yl)phenyl)-2-(ethylamino)-9-methyl-6,7,8,9-tetrahydro-5H-pyrimido[4,5-e][1,4]diazepin-5-one], the Ki in assay [1], in assay [2] (setting [3]) and in assay [2] (setting [4]) was under 100 nM throughout.

(Values after patent US10590140B2, “Tetrahydropyrimidodiazepine and dihydropyridodiazepine compounds for treating pain and pain related conditions” (ESTEVE PHARMACEUTICALS, S.A., priority 2016, dated 2020).)
